Test results taken from patent US20190290729A1, “PHARMACEUTICAL ASSOCIATION OF GROWTH FACTOR RECEPTOR AGONIST AND ADHESION PROTEIN INHIBITOR FOR CONVERTING A NEOPLASTIC CELL INTO A NON-NEOPLASTIC CELL AND USES THEREOF” (HISTIDE AG, priority 2015, published 2019).
Where no end group is shown, it is not given here.

Assays:
[1] = test system: human rhabdosarcoma cells; experiment: p53 quantification, same procedure, rhabdosarcoma cells; format: cell-based; design: P53: unit not given here; settings: for P53: Table 9, in association with SiRNA Integrin alpha 3+RGDSPC+SiRNA Integrin beta 1+SiRNA Syndecan 1 (SEQ ID NO: 31, 32, 164 to 187)
Protocol: (§1) The following starting materials and reagents were used: • Type-I collagen sponge was obtained from Sigma®. • PBS 1× was obtained from Gibco®. • MilliQ water: is water characterised in terms of resistivity (typically 18.2 MΩ·cm at 25° C.). • Low glucose Dulbecco's Modified Eagle Medium (DMEM) was obtained from Invitrogen® • Minimum Essential Medium Eagle without ascorbic acid (αMEM) was obtained from Invitrogen®. • All of the cell culture experiments were carried out without any serum in the medium for the first 8 hours of culture. • Osteosarcoma cells: MG63 cells were obtained from ATCC®. These cells were cultured in DMEM (Eagle's Minimum Essential Medium) medium supplemented with 10% fetal calf serum (FCS) and 1% penicillin/streptomycin. All cells were used at a low passage number (passage 10), were subconfluently cultured and were seeded at 10^4 cells/cm^2 for the purpose of the experiments. • Chondrosarcoma cells Hs819.T cells were obtained from ATCC®. These cells were cultured in DMEM (Eagle's Minimum Essential Medium) medium supplemented with 10% fetal calf serum (FCS) and 1% penicillin/streptomycin. All cells were used at a low passage number (passage 10), were subconfluently cultured and were seeded at 10^4 cells/cm^2 for the purpose of the experiments. • Rhabdomyosarcoma cells: A-673 cells were obtained from ATCC®. These cells were cultured in DMEM (Eagle's Minimum Essential Medium) medium supplemented with 10% fetal calf serum (FCS) and 1% penicillin/streptomycin. All cells were used at a low passage number (passage 10), were subconfluently cultured and were seeded at 10^4 cells/cm^2 for the purpose of the experiments. • Adenocarcinoma cells: HCC4006 cells were obtained from ATCC®. These cells were cultured in RPMI-1640 medium (obtained from ATCC®) supplemented with 10% fetal calf serum (FCS) and 1% penicillin/streptomycin. All cells were used at a low passage number (passage 10), were subconfluently cultured and were seeded at 10^4 cells/cm^2 for the purpose of the experiments. • CMFDA is a Cell Tracker Green obtained from Invitrogen®. • DAPI was obtained from Sigma®. • Fetal bovine serum (FBS) was obtained from Gibco®. • Penicillin/streptomycin was obtained from Invitrogen®. • The AlamarBlue® assay was obtained from Molecular Probes®. • Anti phospho-p53 antibody was obtained from Santa Cruz Biotechnology®, • Anti pRB antibody was obtained from Santa Cruz Biotechnology®, • Monoclonal anti-integrin (extracellular domain) αv, α5, α3, α4, β1, β3, β5 and β9 antibodies were obtained from Santa Cruz Biotechnology®, • Cell cytoskeletal filamentous actin (F-actin) was visualized by Alexa Fluor® 488 phalloidin Sigma® labeling. • Monoclonal anti-vinculin antibody (clone hVIN-1, produced in mouse) was obtained from Sigma®.
(§2) • All of the peptides were synthetized using conventional solution and/or solid phase peptide synthesis methods. • All of the experiments were performed with a concentration of 400 ng/mL of GFR-binding compound(s) as defined herein. • All cell culture experiments were performed with cultures on plastic coated with type-I collagen in order to mimic the physiological conditions of the human body. • The compositions of pharmaceutical compositions used in the examples below are summarized in the following table:
(§3) The cells were first fixed for 20 min with 4% paraformaldehyde/PBS at 4° C. After fixation, the cells were permeabilized in PBS containing 1% Triton X-100 for 15 min. Protein immunofluorescent visualization was performed by first treating the cells with 1% (v/v) specific monoclonal antibodies for 1 hour at 37° C. Then the samples were incubated with Alexa Fluor® 568 or 647 (F(ab′)2 fragment of IgG(H+L)) during 30 min at room temperature. The cell nuclei were counterstained in 20 ng/mL DAPI for 10 min at room temperature.
(§4) For this type of quantification the freeware image analysis ImageJ® software was used. […]

[2] = test system: human rhabdosarcoma cells; experiment: pRB quantification, same procedure, rhabdosarcoma cells; format: cell-based; settings: for pRB: Table 9, in association with SiRNA Integrin alpha 3+RGDSPC+SiRNA Integrin beta 1+SiRNA Syndecan 1 (SEQ ID NO: 31, 32, 164 to 187)
Protocol: as §1, §2, §3, §4

[3] = Table 8, in association with SiRNA Integrin alpha 3, v, 4 and SiRNA Integrin beta 1
[4] = Table 5, cyclic GFR-binding peptide in association with SiRNA Integrin alpha 3+RGDSPC+SiRNA Integrin beta 1+SiRNA Syndecan 1, 400 ng/mL

Sequence	P53 [1]	pRB [2]	other results
APTGGSATSMLYYDKGVVTYLRKHRGGVVK (Non-cyclic GFR-binding peptide) [SEQ ID NO: 127]	–	–	P53 (%) [1, 3]: 33%; pRB (%) [2, 3]: 16%
APTLLNAISMLYFNDKQQIILKKYRLLVVR (Non-cyclic GFR-binding peptide) [SEQ ID NO: 126]	–	–	P53 (%) [1, 3]: 41%; pRB (%) [2, 3]: 8%
APVAAKPLSMLYVDKGVVTYDHHKDAAVEE (Non-cyclic GFR-binding peptide) [SEQ ID NO: 132]	–	–	P53 (%) [1, 3]: 38%; pRB (%) [2, 3]: 9%
APVKMEPLPTVYYDDMGVPTEQLSNDMVEESGSLDDMGVPT (also: cyclic, ring not given here) [SEQ ID NO: 38225]	–	–	P53 (%) [1, 4]: 49%; pRB (%) [2, 4]: 9%
CAAAPASSSVPARLSPISILYIAAAYKQYEDM (Non-cyclic GFR-binding peptide) [SEQ ID NO: 185]	47	8	–
CAAPASSSVPARLSPISILYIDAANNVVYKQYEDMVVE (Non-cyclic GFR-binding peptide) [SEQ ID NO: 182]	41	8	–
CAAPASSSVPARLSPISILYIDAANNVVYKQYEDMVVEASG (Non-cyclic GFR-binding peptide) [SEQ ID NO: 181]	45	9	–
CAAPASSSVPARLSPISLLYIDAANNVVYKQYEDM (Non-cyclic GFR-binding peptide) [SEQ ID NO: 183]	44	13	–
CASAAPSSVPQALEPLPIVYYVGRTPKVEQLSNMIVRSSK (Non-cyclic GFR-binding peptide) [SEQ ID NO: 175]	45	7	–
CGIPEPSSVPEKMSSLSILFFDENKNVVLKVYPNM (Non-cyclic GFR-binding peptide) [SEQ ID NO: 179]	40	11	–
CGIPEPSSVPEKTSSLSLLFFDENKNVVLKVYPNM (Non-cyclic GFR-binding peptide) [SEQ ID NO: 180]	29	9	–
CKIPKASSVPTELEPLPIVYYVGRKPKVEQLSNMIVRS (Non-cyclic GFR-binding peptide) [SEQ ID NO: 174]	40	6	–
CPARLSPISLLYIDAANNVVYKQYEDM (Non-cyclic GFR-binding peptide) [SEQ ID NO: 184]	39	11	–
CTVPKPSSAPTQLSPISILYIDAANNVVYKQYEDMVVRA (Non-cyclic GFR-binding peptide) [SEQ ID NO: 187]	42	9	–
CVPQRLSPISILYIDAANNVVYKQYE (Non-cyclic GFR-binding peptide) [SEQ ID NO: 186]	38	12	–
CVPTEERSVKVAKVRIKPHQGQHKEVQV (Non-cyclic GFR-binding peptide) [SEQ ID NO: 176]	33	7	–
CVPTEESNITMQIMRIKPHQGQHIGEMSFL (Non-cyclic GFR-binding peptide) [SEQ ID NO: 177]	43	8	–
EPSSSRVRLEPLTTLYYGGGGGGGEQLSNVVEEHSKDKGVVTY (also: cyclic peptide, ring closure not given here) [SEQ ID NO: 38224]	–	–	P53 (%) [1, 4]: 46%; pRB (%) [2, 4]: 8%
EPSSVSQAAEPLPIVYYRIKPHQGQHEQLSNMIVKSSKSSDDMGVPT (also: cyclic peptide, ring closure not given here) [SEQ ID NO: 38226]	–	–	P53 (%) [1, 4]: 29%; pRB (%) [2, 4]: 12%
GTPGPAPTKLSAISMLYLDSSNNVILKKYR (Non-cyclic GFR-binding peptide) [SEQ ID NO: 166]	37	10	–

Sequence	P53 [1]	pRB [2]	other results
GTPGPAPTKLSAISMLYLDSSNNVILRKHR (Non-cyclic GFR-binding peptide) [SEQ ID NO: 165]	42	9	–
GTPGPAPTQLSPISVLYKDDSSNVILKYHY (Non-cyclic GFR-binding peptide) [SEQ ID NO: 31]	34	5	–
GTPGPASSAVSQELSAISMLYLGGGLKNYQDM (Non-cyclic GFR-binding peptide) [SEQ ID NO: 32]	46	7	–
GTPGPKASSVPTELSPISTLYKDENEKVVLKYHYDM (Non-cyclic GFR-binding peptide) [SEQ ID NO: 168]	51	13	–
GTPGPKASSVPTELSPISTLYKDENEKVVLKYHYDMVVEGSGSR (Non-cyclic GFR-binding peptide) [SEQ ID NO: 167]	41	11	–
GTPGPPKPSSAPTQLNAISMLYFGGGGGLKKYRDMQHN (Non-cyclic GFR-binding peptide) [SEQ ID NO: 169]	37	8	–
GTPGPPSSAPTQLSATSVLYYDDSSNVILRKHRMIVKS (Non-cyclic GFR-binding peptide) [SEQ ID NO: 164]	47	10	–
GTPGPRNVQCRPTQVQLSAISTLYLAAALKNYQTLE (Non-cyclic GFR-binding peptide) [SEQ ID NO: 173]	37	15	–
GTPGPRNVQCRPTQVQLSAISTLYLEIVRKKPLKNYQTLEDH (Non-cyclic GFR-binding peptide) [SEQ ID NO: 172]	33	12	–
IPKASSAPVGQRPVQMRKIDKGVVTYKKATVSSVEESGSLDKGVVTY (not fully specified; also: cyclic, mode of cyclisation not given here) [SEQ ID NO: 38218]	–	–	P53 (%) [1, 4]: 36%; pRB (%) [2, 4]: 12%
KASSSRVKMSNITVQIMRIKPHQGQHIGEMSVVEEHASGSHDKGVVTY (not fully specified; also: cyclic, mode of cyclisation not given here) [SEQ ID NO: 38222]	–	–	P53 (%) [1, 4]: 52%; pRB (%) [2, 4]: 15%
KASSVPQEERPVQMRKIGGGGGGGKKATVMIVRSSKSSDDMGVPT (not fully specified; also: cyclic, mode of cyclisation not given here) [SEQ ID NO: 38219]	–	–	P53 (%) [1, 4]: 38%; pRB (%) [2, 4]: 15%
PTSSAPTDLRSVKMAKVEIVRKKPIFKEVQVDMVVKASGDKGVVTY (not fully specified; also: cyclic peptide) [SEQ ID NO: 38221]	–	–	P53 (%) [1, 4]: 48%; pRB (%) [2, 4]: 11%
SRVAARSVKMAKVGGGGGGGKEVQVAAEEH (Non-cyclic GFR-binding peptide) [SEQ ID NO: 136]	–	–	P53 (%) [1, 3]: 38%; pRB (%) [2, 3]: 10%
SRVLLRPVQMRKIDKGVVTYKKATVLLEEH (Non-cyclic GFR-binding peptide) [SEQ ID NO: 139]	–	–	P53 (%) [1, 3]: 49%; pRB (%) [2, 3]: 18%
TPTSSSPINTLYFDDMGVPTYGKIPSSVVD (Non-cyclic GFR-binding peptide) [SEQ ID NO: 130]	–	–	P53 (%) [1, 3]: 48%; pRB (%) [2, 3]: 15%
TQVAARPVQTRKIDDMGVPTKKATVAAEDH (Non-cyclic GFR-binding peptide) [SEQ ID NO: 140]	–	–	P53 (%) [1, 3]: 35%; pRB (%) [2, 3]: 17%
VPEAASSLSMLFFEIVRKKPIFLKVYPAATVE (Non-cyclic GFR-binding peptide) [SEQ ID NO: 124]	–	–	P53 (%) [1, 3]: 37%; pRB (%) [2, 3]: 12%
VPQAAEPLPMLYYDKGVVTYEQLSNAAVRS (Non-cyclic GFR-binding peptide) [SEQ ID NO: 133]	–	–	P53 (%) [1, 3]: 42%; pRB (%) [2, 3]: 7%
